From ChEMBL document CHEMBL1201862, “PubChem BioAssay data set” (2004)
Values belong to the molecule of their own block, whether it stands above or below them. Activity calls are given as the source filed them.

Legend:
[1] = target: T1, Oxysterols receptor LXR-beta (Homo sapiens, UniProt P55055); format: functional, cell-based;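 further: Cell-based luminescence dose-response assay of agonist activity at LXR, run as a confirmatory counterscreen to a daf-12 agonist screen; HEK293 cells with Gal4-LXR fusion and GAL4-driven luciferase reporter; agonist potency from rising luciferase signal of a Gal4-LXR reporter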
T1 sequence (P55055 whole entry): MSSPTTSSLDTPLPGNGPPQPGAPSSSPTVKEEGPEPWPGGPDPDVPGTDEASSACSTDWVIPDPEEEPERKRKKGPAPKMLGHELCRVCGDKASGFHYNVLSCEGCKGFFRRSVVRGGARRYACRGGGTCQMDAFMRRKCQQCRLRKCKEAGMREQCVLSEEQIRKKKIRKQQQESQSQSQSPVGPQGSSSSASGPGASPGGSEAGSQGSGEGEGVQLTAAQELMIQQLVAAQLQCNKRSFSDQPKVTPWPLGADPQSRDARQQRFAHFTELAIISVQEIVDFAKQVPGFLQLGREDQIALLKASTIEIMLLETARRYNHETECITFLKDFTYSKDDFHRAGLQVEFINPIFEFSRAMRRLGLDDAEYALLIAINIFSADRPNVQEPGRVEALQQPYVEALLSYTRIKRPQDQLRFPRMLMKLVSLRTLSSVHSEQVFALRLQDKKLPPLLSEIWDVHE

Vero = Vero cell cytotoxicity, cytotoxicity control for flavivirus capping enzyme inhibitors (AID 588742); format: functional; conditions: Chlorocebus sabaeus
Genome polyprotein = Genome polyprotein (dengue virus type 2, UniProt P29990); assay: Dengue-2 NS5 methyltransferase inhibitors, primary screen, biochemical, confirmation dose response (AID 588689); format: functional
Aminopeptidase N = target: T2, Aminopeptidase N (Plasmodium falciparum FcB1/Columbia, UniProt O96935); assay: P. falciparum M1AAP inhibitors, biochemical, fluorogenic H-Leu-NHMec substrate, 1536-well (AID 1445); parameters: species or system Plasmodium falciparum 3D7, 3D7
T2 sequence (O96935 whole entry): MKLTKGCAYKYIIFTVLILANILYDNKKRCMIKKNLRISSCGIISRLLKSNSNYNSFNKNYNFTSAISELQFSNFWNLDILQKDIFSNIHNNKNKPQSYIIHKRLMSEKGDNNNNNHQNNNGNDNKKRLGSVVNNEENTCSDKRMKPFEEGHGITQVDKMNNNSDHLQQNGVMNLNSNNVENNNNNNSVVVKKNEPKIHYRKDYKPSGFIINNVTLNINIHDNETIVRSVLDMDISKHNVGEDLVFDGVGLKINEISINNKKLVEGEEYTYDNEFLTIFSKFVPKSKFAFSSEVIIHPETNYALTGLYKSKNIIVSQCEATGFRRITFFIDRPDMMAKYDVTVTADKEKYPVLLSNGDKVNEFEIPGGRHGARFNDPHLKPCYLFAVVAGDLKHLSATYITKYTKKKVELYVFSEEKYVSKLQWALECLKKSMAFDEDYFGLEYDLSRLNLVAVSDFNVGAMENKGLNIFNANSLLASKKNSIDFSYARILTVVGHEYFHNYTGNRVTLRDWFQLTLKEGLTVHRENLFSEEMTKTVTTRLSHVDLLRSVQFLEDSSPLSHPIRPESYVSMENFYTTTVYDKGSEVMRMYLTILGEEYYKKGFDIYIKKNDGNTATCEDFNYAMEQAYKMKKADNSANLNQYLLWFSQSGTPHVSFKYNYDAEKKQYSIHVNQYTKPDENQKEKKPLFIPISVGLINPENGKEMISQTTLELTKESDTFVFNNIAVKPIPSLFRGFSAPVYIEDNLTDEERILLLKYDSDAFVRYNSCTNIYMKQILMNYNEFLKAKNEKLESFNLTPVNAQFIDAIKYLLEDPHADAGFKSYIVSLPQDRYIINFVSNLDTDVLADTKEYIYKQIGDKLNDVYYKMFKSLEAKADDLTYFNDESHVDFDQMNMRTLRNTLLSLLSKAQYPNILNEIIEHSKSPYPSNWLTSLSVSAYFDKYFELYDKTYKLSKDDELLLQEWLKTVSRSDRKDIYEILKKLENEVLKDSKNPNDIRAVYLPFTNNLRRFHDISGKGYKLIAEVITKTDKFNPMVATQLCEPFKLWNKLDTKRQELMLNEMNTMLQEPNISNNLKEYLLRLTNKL

[2] = target: T3, Short transient receptor potential channel 4 (Mus musculus, UniProt Q9QUQ5); assay: mouse TRPC4 channel inhibitors, dose response, cell-based, HEK293 TRPC4/mu-opioid, Fluo-4 calcium (AID 434942); format: functional;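 further: potency of inhibitors blocking the TRPC4 calcium response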
T3 sequence (Q9QUQ5 whole entry): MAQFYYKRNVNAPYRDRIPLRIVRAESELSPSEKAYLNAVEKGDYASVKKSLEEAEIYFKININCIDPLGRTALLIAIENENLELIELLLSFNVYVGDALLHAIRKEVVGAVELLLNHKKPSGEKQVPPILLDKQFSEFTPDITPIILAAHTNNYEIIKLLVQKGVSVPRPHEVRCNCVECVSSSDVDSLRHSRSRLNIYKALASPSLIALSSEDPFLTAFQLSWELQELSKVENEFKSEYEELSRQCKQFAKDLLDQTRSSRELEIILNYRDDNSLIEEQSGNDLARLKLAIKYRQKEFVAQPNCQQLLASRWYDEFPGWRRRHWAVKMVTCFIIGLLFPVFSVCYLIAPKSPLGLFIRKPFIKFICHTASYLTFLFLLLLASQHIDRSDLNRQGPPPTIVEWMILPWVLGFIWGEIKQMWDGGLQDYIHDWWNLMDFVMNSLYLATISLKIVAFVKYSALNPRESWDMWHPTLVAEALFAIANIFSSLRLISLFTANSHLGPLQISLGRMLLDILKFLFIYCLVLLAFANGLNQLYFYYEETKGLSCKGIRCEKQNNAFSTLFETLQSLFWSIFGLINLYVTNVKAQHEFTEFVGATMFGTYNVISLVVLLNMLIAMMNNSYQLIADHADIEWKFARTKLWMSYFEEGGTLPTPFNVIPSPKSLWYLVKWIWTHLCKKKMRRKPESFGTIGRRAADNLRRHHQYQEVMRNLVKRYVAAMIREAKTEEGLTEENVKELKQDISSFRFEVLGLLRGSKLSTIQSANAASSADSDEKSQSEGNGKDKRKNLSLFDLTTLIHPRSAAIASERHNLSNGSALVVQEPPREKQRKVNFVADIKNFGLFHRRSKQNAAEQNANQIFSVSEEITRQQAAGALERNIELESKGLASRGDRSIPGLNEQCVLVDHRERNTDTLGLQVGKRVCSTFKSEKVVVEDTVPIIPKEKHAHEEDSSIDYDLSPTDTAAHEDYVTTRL

[3] = target: T4, Corticotropin-releasing factor receptor 2/Corticotropin-releasing factor-binding protein (Homo sapiens, UniProt P24387+Q13324); assay: activators of CRF receptor 2 with binding protein – uHTS hits, confirmation (AID 602473); format: functional; conditions: read-out: EC50_Mean
T4 sequence (Q13324 whole entry): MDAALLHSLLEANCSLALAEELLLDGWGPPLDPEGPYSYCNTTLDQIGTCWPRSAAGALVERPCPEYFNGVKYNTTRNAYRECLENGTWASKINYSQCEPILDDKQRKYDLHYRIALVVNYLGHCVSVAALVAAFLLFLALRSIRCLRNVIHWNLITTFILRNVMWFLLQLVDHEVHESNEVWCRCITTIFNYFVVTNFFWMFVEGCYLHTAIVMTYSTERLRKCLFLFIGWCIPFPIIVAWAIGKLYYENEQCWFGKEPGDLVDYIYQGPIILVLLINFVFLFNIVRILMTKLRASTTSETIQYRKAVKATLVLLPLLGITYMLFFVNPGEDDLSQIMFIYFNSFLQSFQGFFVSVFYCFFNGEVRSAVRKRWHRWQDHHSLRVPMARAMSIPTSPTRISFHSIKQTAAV
T4 sequence (P24387 whole entry): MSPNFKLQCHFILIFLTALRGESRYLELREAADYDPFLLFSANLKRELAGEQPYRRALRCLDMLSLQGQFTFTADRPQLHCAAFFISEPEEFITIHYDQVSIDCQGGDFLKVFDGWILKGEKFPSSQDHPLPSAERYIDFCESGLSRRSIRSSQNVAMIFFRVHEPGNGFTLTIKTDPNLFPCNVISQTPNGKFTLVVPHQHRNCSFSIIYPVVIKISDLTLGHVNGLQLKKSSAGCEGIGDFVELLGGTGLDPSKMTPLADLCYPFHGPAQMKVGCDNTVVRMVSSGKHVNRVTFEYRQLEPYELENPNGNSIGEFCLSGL

[4] = target: T4, Corticotropin-releasing factor receptor 2/Corticotropin-releasing factor-binding protein; assay: Dose Response confirmation of uHTS hits for small molecule antagonists of the CRF-binding protein and CRF-R2 receptor complex.; format: functional; conditions: read-out: IC50_Mean
[5] = CRF-BP/CRF-R2 complex antagonists, dose response, cell-based, uHTS hits, 384-well (AID 651639); format: functional, Homo sapiens; conditions: read-out: IC50_Mean
[6] = target: Potassium channel subfamily K member 9 (Homo sapiens, UniProt Q9NPC2); assay: TASK3 (KCNK9) channel inhibitors, thallium flux, SAR follow-up, selectivity assay for TASK1 inhibitor project, cell-based, FluxOR thallium flux, concentration-response (AID 652211); format: functional;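 further: potency is for inhibitors of the channel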
[7] = HepG2 cell cytotoxicity, dose response, cytotoxicity control, plate reader, cherry-pick, antagonist series (AID 743416); format: functional, cell-based
[8] = HEK293 cell cytotoxicity, dose response, cytotoxicity control, plate reader, cherry-picked samples (AID 743446); format: functional, cell-based
[9] = MC4R antagonists, dose response, counter-screen for LGR2 antagonist project, cell-based, plate reader, cherry pick (AID 743444); format: functional;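 further: transfected HEK 293 cells stimulated with alpha-MSH peptide; potency of inhibitors of the alpha-MSH evoked signal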
[10] = LGR2 antagonists, dose response, cell-based, HEK293, CRE-luciferase reporter, cherry pick, set 2 (AID 743343); format: functional;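 further: transfected cells were stimulated with diluted bursicon conditioned medium after compound addition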
[11] = A549 cell cytotoxicity, dose response, cytotoxicity control, plate reader, cherry-pick, antagonist series (AID 743412); format: functional, cell-based
[12] = target: T5, ATP-dependent translocase ABCB1 (Homo sapiens, UniProt P08183); assay: ABCG2 efflux pump inhibitor potency, dose response, Ig-MXP3 cells, JC-1, flow cytometry, set 2 (AID 504566); format: functional; conditions: read-out: EC50_MICROM_;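 further: flow cytometry median green fluorescence of retained JC-1 dye; potency of efflux pump inhibition measured as rising substrate retention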
[13] = target: T5, ATP-dependent translocase ABCB1; assay: ABCB1 efflux inhibitor potency, dose response, Jurkat-DNR cells, JC-1, flow cytometry, set 2 (AID 504569); format: functional; conditions: read-out: EC50_MICROM_;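 further: potency of pump inhibitors that raise cellular JC-1 green fluorescence up to the nicardipine level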
HT-1080 = assay: cytotoxicity in HT1080 fibrosarcoma cells, cell-based, fluorescence readout (AID 620); format: functional; conditions: Homo sapiens
Protein skinhead-1 = target: T6, Protein skinhead-1 (Caenorhabditis elegans, UniProt P34707); format: functional
T6 sequence (P34707 whole entry): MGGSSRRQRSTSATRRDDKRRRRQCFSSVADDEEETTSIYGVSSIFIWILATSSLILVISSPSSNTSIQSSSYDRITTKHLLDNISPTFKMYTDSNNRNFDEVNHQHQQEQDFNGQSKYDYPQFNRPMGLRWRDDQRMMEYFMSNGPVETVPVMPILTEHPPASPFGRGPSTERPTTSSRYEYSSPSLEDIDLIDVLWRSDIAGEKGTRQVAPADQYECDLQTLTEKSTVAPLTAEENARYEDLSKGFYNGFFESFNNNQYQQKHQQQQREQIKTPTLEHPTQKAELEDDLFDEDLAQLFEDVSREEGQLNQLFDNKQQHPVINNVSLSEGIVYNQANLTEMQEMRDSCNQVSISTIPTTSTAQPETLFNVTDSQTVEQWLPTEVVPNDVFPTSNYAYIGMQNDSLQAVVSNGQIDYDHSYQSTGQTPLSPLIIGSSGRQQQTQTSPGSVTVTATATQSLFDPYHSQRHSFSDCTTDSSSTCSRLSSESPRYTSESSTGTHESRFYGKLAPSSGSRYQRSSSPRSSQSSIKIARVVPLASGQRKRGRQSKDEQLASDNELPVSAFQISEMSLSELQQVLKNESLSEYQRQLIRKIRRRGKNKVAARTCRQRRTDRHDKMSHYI

[14] = target: Luciferin 4-monooxygenase (Photinus pyralis, UniProt P08659); assay: Counter Screen for Luciferase-based Assay Positives. [Related pubchem assays: 620, 618, 411 ]
HEK293 = assay: inhibitors of LMP1-driven NF-kB reporter, dose response, cell-based, HEK293, luciferase, cherry-pick (AID 588343); format: functional; conditions: Homo sapiens

Potassium channel subfamily K member 9, sequence (Q9NPC2 whole entry): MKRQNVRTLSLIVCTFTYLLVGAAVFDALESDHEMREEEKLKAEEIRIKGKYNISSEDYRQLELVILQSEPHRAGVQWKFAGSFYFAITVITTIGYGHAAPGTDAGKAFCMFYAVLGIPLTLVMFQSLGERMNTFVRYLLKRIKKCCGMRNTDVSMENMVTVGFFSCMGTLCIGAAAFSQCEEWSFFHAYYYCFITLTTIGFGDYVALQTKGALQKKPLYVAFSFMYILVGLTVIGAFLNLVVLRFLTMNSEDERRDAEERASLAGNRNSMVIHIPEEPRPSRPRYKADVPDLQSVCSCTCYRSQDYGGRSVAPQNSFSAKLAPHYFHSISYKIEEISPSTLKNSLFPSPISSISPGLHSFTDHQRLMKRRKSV
T5 sequence (P08183 whole entry): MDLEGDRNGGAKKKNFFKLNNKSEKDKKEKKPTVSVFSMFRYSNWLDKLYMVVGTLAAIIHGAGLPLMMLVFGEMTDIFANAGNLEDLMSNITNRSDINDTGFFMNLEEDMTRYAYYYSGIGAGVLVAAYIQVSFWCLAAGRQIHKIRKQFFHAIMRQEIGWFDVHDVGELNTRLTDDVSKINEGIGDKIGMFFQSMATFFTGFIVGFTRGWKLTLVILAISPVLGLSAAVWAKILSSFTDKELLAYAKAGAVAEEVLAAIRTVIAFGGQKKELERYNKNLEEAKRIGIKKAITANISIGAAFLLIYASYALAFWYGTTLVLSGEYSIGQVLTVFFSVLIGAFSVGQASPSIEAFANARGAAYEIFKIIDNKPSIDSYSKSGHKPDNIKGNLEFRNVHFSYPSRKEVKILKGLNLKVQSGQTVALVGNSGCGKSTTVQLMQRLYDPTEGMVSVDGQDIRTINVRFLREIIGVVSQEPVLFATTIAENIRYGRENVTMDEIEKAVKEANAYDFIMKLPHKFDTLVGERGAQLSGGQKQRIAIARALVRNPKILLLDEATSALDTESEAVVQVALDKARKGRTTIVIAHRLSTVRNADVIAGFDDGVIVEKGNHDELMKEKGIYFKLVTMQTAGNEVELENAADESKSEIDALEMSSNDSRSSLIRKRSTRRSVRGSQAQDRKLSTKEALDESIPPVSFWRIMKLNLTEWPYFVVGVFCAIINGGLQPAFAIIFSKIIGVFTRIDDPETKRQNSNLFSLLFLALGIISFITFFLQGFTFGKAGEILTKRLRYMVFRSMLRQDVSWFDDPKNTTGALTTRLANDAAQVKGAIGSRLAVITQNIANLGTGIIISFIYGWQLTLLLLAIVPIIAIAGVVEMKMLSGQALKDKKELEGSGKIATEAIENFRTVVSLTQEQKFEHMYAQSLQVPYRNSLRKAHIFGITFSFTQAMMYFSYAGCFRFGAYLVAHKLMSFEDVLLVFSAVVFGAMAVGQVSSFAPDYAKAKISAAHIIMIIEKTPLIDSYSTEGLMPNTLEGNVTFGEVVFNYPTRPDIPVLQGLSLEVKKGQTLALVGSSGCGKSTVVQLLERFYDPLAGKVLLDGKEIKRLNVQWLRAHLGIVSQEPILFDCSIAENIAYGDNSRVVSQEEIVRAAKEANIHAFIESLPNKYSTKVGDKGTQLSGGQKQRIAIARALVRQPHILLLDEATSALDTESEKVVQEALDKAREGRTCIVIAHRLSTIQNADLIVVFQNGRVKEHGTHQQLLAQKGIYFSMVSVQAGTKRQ
Genome polyprotein, sequence (P29990 2492-3391 limits assumed): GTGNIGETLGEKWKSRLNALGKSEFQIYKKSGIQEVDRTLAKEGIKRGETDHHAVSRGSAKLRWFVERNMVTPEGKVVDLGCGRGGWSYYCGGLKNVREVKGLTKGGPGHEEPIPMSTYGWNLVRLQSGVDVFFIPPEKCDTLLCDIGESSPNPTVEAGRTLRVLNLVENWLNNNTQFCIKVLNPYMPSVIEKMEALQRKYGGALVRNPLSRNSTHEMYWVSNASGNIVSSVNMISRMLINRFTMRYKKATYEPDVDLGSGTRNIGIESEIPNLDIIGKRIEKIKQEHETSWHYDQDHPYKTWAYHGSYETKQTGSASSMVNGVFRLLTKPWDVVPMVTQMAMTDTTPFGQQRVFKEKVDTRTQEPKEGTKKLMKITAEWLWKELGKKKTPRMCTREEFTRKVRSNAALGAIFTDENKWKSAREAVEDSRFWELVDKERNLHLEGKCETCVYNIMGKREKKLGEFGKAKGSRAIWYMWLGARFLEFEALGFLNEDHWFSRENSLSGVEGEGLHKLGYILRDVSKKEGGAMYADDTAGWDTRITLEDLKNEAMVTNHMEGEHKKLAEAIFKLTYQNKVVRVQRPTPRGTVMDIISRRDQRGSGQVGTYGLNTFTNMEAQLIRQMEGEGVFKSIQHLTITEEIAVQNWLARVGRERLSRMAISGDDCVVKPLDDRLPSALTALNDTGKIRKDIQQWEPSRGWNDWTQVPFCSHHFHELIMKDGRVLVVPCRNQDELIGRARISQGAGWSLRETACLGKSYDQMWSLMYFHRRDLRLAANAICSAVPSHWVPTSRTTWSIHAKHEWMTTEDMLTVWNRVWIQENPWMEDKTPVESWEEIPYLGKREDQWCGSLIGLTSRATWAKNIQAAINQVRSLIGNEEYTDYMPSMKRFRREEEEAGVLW
Luciferin 4-monooxygenase, sequence (P08659 whole entry): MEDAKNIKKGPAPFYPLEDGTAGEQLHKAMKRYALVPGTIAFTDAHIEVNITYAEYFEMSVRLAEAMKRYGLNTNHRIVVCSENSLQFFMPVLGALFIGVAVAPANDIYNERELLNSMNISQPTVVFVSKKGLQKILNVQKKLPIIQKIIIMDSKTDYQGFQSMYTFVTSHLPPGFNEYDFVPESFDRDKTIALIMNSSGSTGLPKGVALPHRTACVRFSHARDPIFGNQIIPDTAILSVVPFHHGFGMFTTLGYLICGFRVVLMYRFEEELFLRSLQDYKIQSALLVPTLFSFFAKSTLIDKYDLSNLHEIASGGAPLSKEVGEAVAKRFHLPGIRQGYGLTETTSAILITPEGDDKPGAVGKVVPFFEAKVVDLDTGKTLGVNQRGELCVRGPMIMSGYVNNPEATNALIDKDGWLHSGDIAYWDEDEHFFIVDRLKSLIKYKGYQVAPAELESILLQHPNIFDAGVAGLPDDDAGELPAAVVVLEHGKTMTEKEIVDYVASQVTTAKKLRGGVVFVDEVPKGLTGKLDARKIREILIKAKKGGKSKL

SMILES: Brc1ccccc1C1NC(c2ccccc2)=NO1 (stereo not given)
EC50 [1]: > 67.5 µM (inactive) | EC50 (cells): > 67.5 µM (inactive)

SMILES: COc1cc(/C=C2\SC(=S)N(NS(=O)(=O)c3ccc(C)cc3)C2=O)cc(OC)c1OC
CC50 (Vero): > 40 µM (active) | IC50 (Genome polyprotein): 37.4 µM (active) | IC50 (Aminopeptidase N): 33.1 µM (active) | EC50 [2]: 6.68 µM (active) | EC50 [3]: > 53 µM (inactive) | IC50 [4]: 12.6 µM (active) | IC50 [5]: 10.4 µM (active)

SMILES: Cc1cc2ncc(-c3cccs3)nc2cc1C
AC50 [7]: > 52 µM (inactive) | AC50 [8]: 49.4 µM (active) | AC50 [9]: 4.22 µM (active) | EC50 [1]: > 67.6 µM (inactive) | AC50 [10]: 4.64 µM (active) | AC50 [11]: 25.7 µM (active) | EC50 (cells): > 67.6 µM (inactive)

SMILES: COc1ccccc1C(=O)Nc1cccc(NC(=O)c2ccccc2OC(F)(F)F)c1
IC50 [6]: 1.17 µM (active)

SMILES: Brc1ccc(-c2nc(-c3ccccn3)no2)o1
EC50 (HT-1080): > 50 µM (not active) | IC50 (Protein skinhead-1): 72.1 µM (inactive) | AC50 [7]: > 52 µM (inactive) | AC50 [9]: 3.84 µM (active) | EC50 [14]: 2.58 µM (active) | EC50 [1]: > 67.5 µM (inactive) | AC50 [10]: 2.92 µM (active) | AC50 (HEK293): 2.33 µM (active) | AC50 [11]: > 52 µM (inactive) | EC50 (cells): > 67.5 µM (inactive)

Second part, the molecule after the results:

IC50 [6]: 3.49 µM (active)
SMILES: COc1ccccc1C(=O)Nc1cccc(NC(=O)c2ccccc2C)c1

EC50 [12]: 3.41 µM (active) | EC50 [13]: 7.87 µM (active)
SMILES: Cc1nc2cc(-c3cccc(Cl)c3)nn2c(N2CCN(C(=O)c3ccco3)CC2)c1C

EC50 [12]: 1.79 µM (active) | EC50 [13]: 3.83 µM (active)
SMILES: COc1ccc(-c2cc3nc(C)c(C)c(N4CCN(C(=O)c5ccsc5)CC4)n3n2)cc1

EC50 [12]: 1.63 µM (active) | EC50 [13]: 3.4 µM (active)
SMILES: O=C(c1ccsc1)N1CCN(c2cc(-c3ccccc3)nc3cc(-c4cccc(Cl)c4)nn23)CC1

IC50 [6]: 7.21 µM (active)
SMILES: O=C(Nc1cccc(NC(=O)c2ccccc2C(F)(F)F)c1)c1ccccc1
